This data set is described as follows: Thermal stability, percentage of decomposition (GB/T 23800-2009, modified). In kind it is physicochemical. Conditions: after 500 hours at 320° C. The method, then: The thermal stability has been evaluated in the present invention by measuring, according to the GB/T 23800-2009 standard, the percentage of decomposition of the fluid. The test performed in the present example differs from the standard by the temperature and the duration of the test. According to the example, the percentage of decomposition of the fluid has been measured after 500 hours at 320° C.
The fluid of Ex. 3 according to the invention and defined above has been compared with other commercial fluids: an alkylbenzene fluid, a dibenzyltoluene isomer, a mineral base oil and a hydrotreated mineral base oil.

dibenzyltoluene isomer: the “Thermal stability (% of decomposition)” value was found to be 6.9%.

For the origin of these results see patent US11680196B2, “Use of biodegradable hydrocarbon fluids as heat-transfer media” (TOTAL MARKETING SERVICES, priority 2016, dated 2023).
